Experimental data: PubChem BioAssay AID1845203 (Molecular Pharmacology Branch, DTP, NCI, 2023)

Tested on: G-401 tumor spheroids, viability % test/control
Assay: Anticancer human tumor G-401 cell line growth inhibition;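 note: spheroids exposed to compound for 7 days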;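 for viability, T/C: 100% = DMSO vehicle-treated spheroids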
Conditions: spheroids with HUVEC and MSC; for IC50: curve of first compound; for viability, T/C: stronger effect = lower value
Outline: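 Complex tumor spheroids combined malignant cells with endothelial cells and mesenchymal stem cells. DNA-damaging drugs and DNA repair inhibitors were tested alone and in combination, at half-log dilutions down from clinical Cmax (top 10 microM if Cmax unknown), 0.25% DMSO final.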

[1] = second compound 1 µM, first compound 0.0316 µM
[2] = second compound 1 µM, first compound 0.1 µM
[3] = second compound 1 µM, first compound 0.316 µM
[4] = second compound 1 µM, first compound 1 µM
[5] = second compound 1 µM, first compound 3.16 µM
[6] = second compound 1 µM, first compound 10 µM
[7] = second compound 3.16 µM, first compound 0.0316 µM
[8] = second compound 3.16 µM, first compound 0.1 µM
[9] = second compound 3.16 µM, first compound 0.316 µM
[10] = second compound 3.16 µM, first compound 1 µM
[11] = second compound 3.16 µM, first compound 3.16 µM
[12] = second compound 3.16 µM, first compound 10 µM
[13] = second compound 10 µM, first compound 0.0316 µM
[14] = second compound 10 µM, first compound 0.1 µM
[15] = second compound 10 µM, first compound 0.316 µM
[16] = second compound 10 µM, first compound 1 µM
[17] = second compound 10 µM, first compound 3.16 µM
[18] = second compound 10 µM, first compound 10 µM
[19] = second compound 31.6 µM, first compound 0.0316 µM
[20] = second compound 31.6 µM, first compound 0.1 µM
[21] = second compound 31.6 µM, first compound 0.316 µM
[22] = second compound 31.6 µM, first compound 1 µM
[23] = second compound 31.6 µM, first compound 3.16 µM
[24] = second compound 31.6 µM, first compound 10 µM
[25] = second compound 100 µM, first compound 0.0316 µM
[26] = second compound 100 µM, first compound 0.1 µM
[27] = second compound 100 µM, first compound 0.316 µM
[28] = second compound 100 µM, first compound 1 µM
[29] = second compound 100 µM, first compound 3.16 µM
[30] = second compound 100 µM, first compound 10 µM

Compound | IC50 (second compound 1 µM) | IC50 (second compound 3.16 µM) | IC50 (second compound 10 µM) | IC50 (second compound 31.6 µM) | IC50 (second compound 100 µM) | viability, T/C [1] | viability, T/C [2] | viability, T/C [3] | viability, T/C [4] | viability, T/C [5] | viability, T/C [6] | viability, T/C [7] | viability, T/C [8] | viability, T/C [9] | viability, T/C [10] | viability, T/C [11] | viability, T/C [12] | viability, T/C [13] | viability, T/C [14] | viability, T/C [15] | further results
CC(C)n1c(=O)n(C)c2cnc3cc(F)c(-c4ccc(OCCCN5CCCCC5)nc4)cc3c21 + Cn1nnc2c(C(N)=O)ncn2c1=O | > 10 µM | > 10 µM | > 10 µM | > 10 µM | > 10 µM | 99.9% | 104% | 102% | 104% | 103% | 76.5% | 81.6% | 102% | 102% | 102% | 99.4% | 83.6% | 105% | 98.9% | 97.5% | viability, T/C [16]: 103%; viability, T/C [17]: 101%; viability, T/C [18]: 66.2%; viability, T/C [19]: 97.8%; viability, T/C [20]: 95.4%; viability, T/C [21]: 97.7%; viability, T/C [22]: 96.3%; viability, T/C [23]: 90.4%; viability, T/C [24]: 62.8%; viability, T/C [25]: 89.6%; viability, T/C [26]: 92.5%; viability, T/C [27]: 86.6%; viability, T/C [28]: 88%; viability, T/C [29]: 91.6%; viability, T/C [30]: 80.1%
CC1COCCN1c1cc(-c2ccnn2C)c2ccnc(-c3ccn[nH]3)c2n1 (stereo not given) + Cn1nnc2c(C(N)=O)ncn2c1=O | 0.0769 µM | 0.0866 µM | 0.0797 µM | 0.07 µM | 0.0556 µM | 76.3% | 42.1% | 22.9% | 15.9% | 16.1% | 20% | 79.8% | 45.6% | 24.9% | 16.8% | 17.4% | 19.8% | 76% | 43.6% | 21.5% | viability, T/C [16]: 15.7%; viability, T/C [17]: 16.4%; viability, T/C [18]: 18.8%; viability, T/C [19]: 74.5%; viability, T/C [20]: 39%; viability, T/C [21]: 18%; viability, T/C [22]: 15.4%; viability, T/C [23]: 16.2%; viability, T/C [24]: 18.5%; viability, T/C [25]: 66%; viability, T/C [26]: 33.4%; viability, T/C [27]: 13.7%; viability, T/C [28]: 12.7%; viability, T/C [29]: 14.1%; viability, T/C [30]: 12%
COc1cc(C)[nH]c(=O)c1CN1CCc2c(Cl)cc(C(OC)C3COC3)c(Cl)c2C1=O (stereo not given) + Cn1nnc2c(C(N)=O)ncn2c1=O | 0.16 µM | 0.201 µM | 0.145 µM | 0.208 µM | 0.203 µM | 88.4% | 57.9% | 38.3% | 31.7% | 21.3% | 27.6% | 86.3% | 63% | 41.2% | 30.4% | 24.3% | 23.5% | 81% | 59.9% | 25.5% | viability, T/C [16]: 33.8%; viability, T/C [17]: 30.4%; viability, T/C [18]: 27.2%; viability, T/C [19]: 81.8%; viability, T/C [20]: 60.8%; viability, T/C [21]: 43.9%; viability, T/C [22]: 32.2%; viability, T/C [23]: 27.9%; viability, T/C [24]: 23.4%; viability, T/C [25]: 88.3%; viability, T/C [26]: 62%; viability, T/C [27]: 43.3%; viability, T/C [28]: 29.6%; viability, T/C [29]: 30.8%; viability, T/C [30]: 24.7%
COc1ccc([C@@H](O)c2cc(-c3ncnc4cc(N5CCOCC5)ccc34)c(F)cc2Cl)nn1 + Cn1nnc2c(C(N)=O)ncn2c1=O | 1.35 µM | 0.932 µM | 1.26 µM | 1.13 µM | 1.02 µM | 103% | 95.7% | 88.1% | 60.9% | 21.9% | 9.93% | 96.6% | 90.8% | 91.4% | 46.3% | 20.6% | 10.6% | 105% | 96.1% | 90% | viability, T/C [16]: 57.8%; viability, T/C [17]: 20.9%; viability, T/C [18]: 10.8%; viability, T/C [19]: 90.9%; viability, T/C [20]: 88.8%; viability, T/C [21]: 85.1%; viability, T/C [22]: 52%; viability, T/C [23]: 22.5%; viability, T/C [24]: 10.8%; viability, T/C [25]: 89.5%; viability, T/C [26]: 87.4%; viability, T/C [27]: 82.9%; viability, T/C [28]: 49.5%; viability, T/C [29]: 19.1%; viability, T/C [30]: 8.51%
Cc1cc(C)c(CNC(=O)c2cc(-c3ccc(CN4CCOCC4)cc3)cc3c2cnn3C2CCCC2)c(=O)[nH]1 + Cn1nnc2c(C(N)=O)ncn2c1=O | > 10 µM | > 10 µM | > 10 µM | > 10 µM | 8.79 µM | 111% | 106% | 95.8% | 105% | 87.9% | 62.5% | 103% | 104% | 105% | 93.3% | 80.6% | 55.8% | 103% | 99% | 97.1% | viability, T/C [16]: 90.1%; viability, T/C [17]: 82.6%; viability, T/C [18]: 53.5%; viability, T/C [19]: 94.3%; viability, T/C [20]: 94.4%; viability, T/C [21]: 92.9%; viability, T/C [22]: 91.5%; viability, T/C [23]: 80.5%; viability, T/C [24]: 52%; viability, T/C [25]: 96.5%; viability, T/C [26]: 103%; viability, T/C [27]: 94.3%; viability, T/C [28]: 93.6%; viability, T/C [29]: 74.2%; viability, T/C [30]: 46.9%
[2H]c1nc(C)nc([2H])c1-c1cc(NC[C@@H](C)c2cccc3c(C(=O)NC)ccnc23)ncn1 + Cn1nnc2c(C(N)=O)ncn2c1=O | > 10 µM | > 10 µM | > 10 µM | > 10 µM | > 10 µM | 101% | 106% | 110% | 102% | 107% | 103% | 105% | 99.3% | 101% | 99.8% | 105% | 103% | 93% | 99.6% | 101% | viability, T/C [16]: 96%; viability, T/C [17]: 108%; viability, T/C [18]: 94%; viability, T/C [19]: 96.3%; viability, T/C [20]: 101%; viability, T/C [21]: 99.7%; viability, T/C [22]: 100%; viability, T/C [23]: 94.2%; viability, T/C [24]: 97.4%; viability, T/C [25]: 95.9%; viability, T/C [26]: 94.8%; viability, T/C [27]: 105%; viability, T/C [28]: 92.8%; viability, T/C [29]: 89.6%; viability, T/C [30]: 86.5%
